In EP4631937A1, “CRYSTALLINE FORM OR AMORPHOUS FORM OF OXOISOINDOLE-5-FORMAMIDE COMPOUND OR SALT AND SOLVATE THEREOF” (Hangzhou Glubio Pharmaceutical Co., Ltd., priority 2022, dated 2024):

Columns and labels:
[1] = Stability test of crystalline forms (open container at 25°C/92% RH and 40°C/75% RH, sealed container at 60°C, 13 days; XRPD, HPLC, colour); assay type: physicochemical; conditions: initial, before storage; listed as Crystalline form G
Description: Placed in a open container at 25°C/92% RH and 40°C/75% RH for 13 days, respectively, or in a sealed container at 60°C for 13 days. […]
(§1) Placed in a open container at 25 °C/92% RH and 40 °C/75% RH for 13 days, respectively, or in a sealed container at 60 °C for 13 days. […]
as §1

[2] = Pharmacokinetic evaluation in mice by gavage; assay type: in vivo; design: AUClast /D: unit not given here; conditions: CD1 male mice, oral, 30 mg/kg, 25 mM citrate buffer (pH 3) containing 5% Tween 80
Description: CD1 male mice were selected and the test compound was administered orally. The drug concentration in plasma at different time points was quantitatively determined by LC/MS/MS to evaluate the pharmacokinetic characteristics of the test drug in mice.
Experimental materials: CD1 Mouse (male, 20-30 g, 6-8 weeks old, Zhejiang Weitong Lihua).
Blood was collected from the dorsal plantar vein at 0.25 h, 0.5 h, 1 h, 2 h, 4 h, 6 h, 8 h and 24 h after administration, placed in an anticoagulant tube containing EDTA-K2 and mixed, and centrifuged at 4°C and 4000 g for 5 minutes. The drug concentration in blood was determined by LC-MS/MS, and the relevant pharmacokinetic parameters were calculated by the non-compartmental linear/log trapezoidal method using Phoenix WinNonlin 6.3 pharmacokinetic software.

[3] = Hygroscopicity test by DVS, with XRPD after DVS; assay type: physicochemical; conditions: 25 °C, listed as Crystalline form G
Description: • DVS Intrinsic Dynamic Vapor Sorption Instrument • Gas flow rate 200 sccm, furnace temperature 25 °C.
(§2) The hygroscopicity and dehydration behavior of crystalline form B was investigated by DVS. Humidity program: 25 °C, 40-0-95-0-40% RH, dm/dt 0.002, shortest equilibrium time was 60 min, and longest equilibrium time was 360 min. XRPD was also performed on the samples after DVS test to determine whether the crystal transformation occurred.
as §2, with “E” for “B”
as §2, with “G” for “B”

[4] = Simulated tableting experiment (XRPD after pressing); assay type: physicochemical
Description: About 10 mg of crystalline form G was weighed and pressed at 2 MPa, 5 MPa or 10 MPa for 5 min. The crystal transformation and the change of crystallinity were investigated by XRPD characterization.

[5] = Stability test of crystalline forms (open container at 25°C/92% RH and 40°C/75% RH, sealed container at 60°C, 13 days; XRPD, HPLC, colour); assay type: physicochemical; conditions: Solid, 1 week, listed as Crystalline form G; for Chemical purity / Chiral purity: HPLC/SFC

O=C1CC[C@H](N2Cc3cc(C(=O)N[C@H](c4ccc(Cl)cn4)C4CCC4)ccc3C2=O)C(=O)N1 [crystalline form G, N-((S)-(5-chloropyridin-2-yl)(cyclobutyl)methyl)-2-((S)-2,6-dioxopiperidin-3-yl)-1-oxoisoindoline-5-carboxamide]
Initial purity (HPLC/SFC) Chemical purity [1]: 99.7% | Initial purity (HPLC/SFC) Chiral purity [1]: 97.6% | AUClast /D ([2]; dose-normalised): 306 ± 35 | AUC(0-inf) ([2]; mouse, plasma): 10700 ± 2100 ng·h/mL | AUC(0-t) ([2]; mouse, plasma): 9170 ± 1050 ng·h/mL | Cmax ([2]; mouse, plasma): 1370 ± 365 ng/mL | Tmax ([2]; mouse, plasma): 0.42 h | half-life ([2]; mouse, plasma): 8.7 h | 1st adsorption weight change percentage ([3]; relative humidity 0%): 0.0% | 1st desorption weight change percentage ([3]; relative humidity 0%): 0.0% | 1st adsorption weight change percentage ([3]; relative humidity 10%): 0.0% | 1st desorption weight change percentage ([3]; relative humidity 10%): 0.1% | 2nd adsorption weight change percentage ([3]; relative humidity 10%): 0.0% | 2nd desorption weight change percentage ([3]; relative humidity 10%): 0.1% | 1st adsorption weight change percentage ([3]; relative humidity 20%): 0.0% | 1st desorption weight change percentage ([3]; relative humidity 20%): 0.1% | 2nd adsorption weight change percentage ([3]; relative humidity 20%): 0.0% | 2nd desorption weight change percentage ([3]; relative humidity 20%): 0.1% | 1st adsorption weight change percentage ([3]; relative humidity 30%): 0.1% | 1st desorption weight change percentage ([3]; relative humidity 30%): 0.2% | 2nd adsorption weight change percentage ([3]; relative humidity 30%): 0.1% | 2nd desorption weight change percentage ([3]; relative humidity 30%): 0.2% | 1st adsorption weight change percentage ([3]; relative humidity 40%): 0.1% | 1st desorption weight change percentage ([3]; relative humidity 40%): 0.3% | 2nd adsorption weight change percentage ([3]; relative humidity 40%): 0.1% | 2nd desorption weight change percentage ([3]; relative humidity 40%): 0.3% | 1st adsorption weight change percentage ([3]; relative humidity 50%): 0.2% | 2nd desorption weight change percentage ([3]; relative humidity 50%): 0.3% | 1st adsorption weight change percentage ([3]; relative humidity 60%): 0.2% | 2nd desorption weight change percentage ([3]; relative humidity 60%): 0.4% | 1st adsorption weight change percentage ([3]; relative humidity 70%): 0.3% | 2nd desorption weight change percentage ([3]; relative humidity 70%): 0.4% | 1st adsorption weight change percentage ([3]; relative humidity 80%): 0.3% | 2nd desorption weight change percentage ([3]; relative humidity 80%): 0.5% | 1st adsorption weight change percentage ([3]; relative humidity 90%): 0.5% | 2nd desorption weight change percentage ([3]; relative humidity 90%): 0.5% | 1st adsorption weight change percentage ([3]; relative humidity 95%): 0.7% | 2nd desorption weight change percentage ([3]; relative humidity 95%): 0.7% | XRPD after DVS test ([3]; after 40-0-95-0-40% RH): The crystal form did not change, see Figure 20b | moisture adsorbed (DVS) ([3]; under 40%RH-95%RH): 0.6% of moisture was adsorbed under 40%RH-95%RH, see Figure 20a | Notes (change of crystallinity) ([4]; pressed at 2 MPa for 5 min): No significant change in crystallinity | XRPD ([4]; pressed at 2 MPa for 5 min): Crystalline form G, see Figure 21a | Notes (change of crystallinity) ([4]; pressed at 5 MPa for 5 min): No significant change in crystallinity | XRPD ([4]; pressed at 5 MPa for 5 min): Crystalline form G, see Figure 21a | Notes (change of crystallinity) ([4]; pressed at 10 MPa for 5 min): No significant change in crystallinity | XRPD ([4]; pressed at 10 MPa for 5 min): Crystalline form G, see Figure 21a | change in crystallinity ([4]; tableted at 2 MPa, 5 MPa and 10 MPa pressures): no significant change in crystallinity was observed | Chemical purity ([5]; 25 °C/92% RH, open container): 99.4% | Chiral purity ([5]; 25 °C/92% RH, open container): 97.8% | Solid (XRPD) ([5]; 25 °C/92% RH, open container): The crystal form did not change, see Figure 17c | Chemical purity ([5]; 40 °C/75% RH, open container): 99.5% | Chiral purity ([5]; 40 °C/75% RH, open container): 97.8% | Solid (XRPD) ([5]; 40 °C/75% RH, open container): The crystal form did not change, see Figure 17c | Chemical purity ([5]; 60 °C, sealed container): 99.5% | Chiral purity ([5]; 60 °C, sealed container): 97.7% | Solid (XRPD) ([5]; 60 °C, sealed container): The crystal form did not change, see Figure 17c
